Drawing on patent publication US10011614B2, “Bis-β-carboline compound and preparation method, pharmaceutical composition and use thereof” (XINJIANG HUASHIDAN PHARMACEUTICAL RESEARCH CO., LTD., priority 2012, dated 2018), this text covers acute toxicity LD50, IC50 and LD50 for four compounds.

Series [1] concerns Kunming mice. The series can be described thus: Acute toxicity test in mice (LD50). To be noted: Kunming mice, single intraperitoneal administration, observed two weeks, Bliss method. The method, then:
(§1) Solvent: 0.9% saline and 0.5% CMC-Na solution. According to pre-test results, design 5 dose gradient for each sample, dose spacing was 0.8 times. […] Experimental volume is 0.5 ml/20 g mouse. A single intraperitoneal administration is used. Kunming mice were taken and grouped randomly by gender, and intraperitoneal administration according to dose designation was set to observe the immediate reaction after administration in mice. Dead animals were dissected to observe, surviving animals continued to observe two weeks, and the animal deaths in two weeks were recorded. After two weeks, surviving animals were dissected, observed substantial organ lesions, and the organs having substantive lesions were further for histological examination. According to the number of deaths in each group of animals, calculating the median lethal dose (LD50 value) by Bliss method, and further, calculating the maximum tolerated dose (MTD) for less toxic compounds.

In series [2] the test system is KB (human oral epidermoid carcinoma cells). The experiment in a line: Antitumor screening in vitro, MTT assay, KB. Type of series: cell-based. To be noted: 48 hours. The method, then:
(§2) Cell lines: BGC (human gastric cancer cells), A375 (human malignant melanoma cells), 769-P (human renal carcinoma cells), KB (human oral epidermoid carcinoma cells), SK-OV-3 (human ovarian cancer cells), etc, were selected, and the test method was the MTT assay. Cisplatin was as a positive control.
(§3) Specific methods are as follows: cells growing well in the logarithmic phase were seeded in 96-well plates at a concentration of 1×10^4 cells/ml, and then were placed in 37° C., containing 5% CO2 incubator for 24 hours. After discarding the old solution, changed fresh medium, and added sterilization treatment compound, and then cultured for 48 hours. After discarding the culture medium, 20 ul RPMI1640 medium containing 5 mg/ml MTT were added to each well in 96-well plates and cells were cultured for 4 hours. After the supernatant was carefully removed, 100 μl DMSO was added to each well, and the plates were Oscillated about 10 min to dissolve the precipitate, followed by detecting OD value in wavelength 490 nm by the microplate reader. Cell survival rate for each sample concentrations was determined by the following formula: The mean survival rate %=the average OD value of sample group/the average OD value of control group×100%
(§4) Morphological studies by mapping with the logarithm of the drug concentration and the mean survival rate % of each sample to obtain IC50 values for each sample.

Series [3] has as its system SK-OV-3 (human ovarian cancer cells). The experiment in a line: Antitumor screening in vitro, MTT assay, SK-OV-3. The series is classed as cell-based. Conditions: 48 hours, SK-OV-3 cells. The method, then: as §2, §3, §4
(Tetrazolium dyes change colour on reduction, which living cells bring about.)

For series [4], the system named is BGC (human gastric cancer cells). The series can be described thus: Antitumor screening in vitro, MTT assay, BGC. Type of series: cell-based. To be noted: 48 hours. The method, then: as §2, §3, §4
In series [5] the test system is A375 (human malignant melanoma cells). The experiment in a line: Antitumor screening in vitro, MTT assay, A375. Type of series: cell-based. The method, then:
as §2, §3, §4

The test system of series [6] is 769-P (human renal carcinoma cells). The series can be described thus: Antitumor screening in vitro, MTT assay, 769-P. The series is classed as cell-based. To be noted: 48 hours, 769-P cells. The method, then:
as §2, §3, §4

The nature of series [7]: in vivo. Conditions: both, Kunming, mouse, in vivo, ip. The method, then:
as §1

By IC50 is commonly meant the concentration that inhibits the measured activity by half. High values mean weaker potency, low ones greater potency. In series [1], `COc1cc(-c2nccc3c4ccccc4n(CCCCCCn4c5ccccc5c5ccnc(-c6cc(OC)c(OC)c(OC)c6)c54)c23)cc(OC)c1OC` [Compound 19, 1,6-bis[1-(3,4,5-trimethoxy)phenyl-β-carboline-9-yl) hexane] gave an acute toxicity LD50 of 200 mg/kg. Moreover, the IC50 was > 300 µM in series [2]; > 300 µM in series [3]; > 300 µM in series [4]; 5.9 µM in series [5] (48 hours); 16.8 µM in series [6].
For orientation: LD50 means the dose expected to kill half of the subjects tested. `Cc1nccc2c3ccc(OC(C)C)cc3n(CCCCCCCCCn3c4cc(OC(C)C)ccc4c4ccnc(C)c43)c12` [Compound 26, 1,9-bis(7-isopropoxy-1-methyl-β-carboline-9-yl) nonane] came in with an LD50 at 2 weeks in series [7] of 200 mg/kg. The IC50 was 112 µM in series [2] (Homo sapiens); 101 µM in series [3] (Homo sapiens); > 300 µM in series [4] (Homo sapiens); 43.3 µM in series [5] (Homo sapiens, A-375, 48 hours); 40 µM in series [6] (Homo sapiens).
As to `CCOC(=O)c1cc2c3ccccc3n(CCCCCCn3c4ccccc4c4cc(C(=O)OCC)nc(-c5cc(OC)c(OC)c(OC)c5)c43)c2c(-c2cc(OC)c(OC)c(OC)c2)n1` [Compound 27, 1,6-bis[1-(3,4.5-trimethoxy)phenyl-β-carboline-β-ethyoxylcarbonyl-9-yl]hexane], the acute toxicity LD50 in series [1] amounted to 300 mg/kg.
As for `c1ccc2c(c1)c1ccnc(-c3ccsc3)c1n2CCCCCCCCn1c2ccccc2c2ccnc(-c3ccsc3)c21` [Compound 34, 1,8-bis[1-(3-thienyl)-β-carboline-9-yl) octane], the LD50 at 2 weeks in series [7] came out at 250 mg/kg. Further, the IC50 in series [2] (Homo sapiens) was > 300 µM; in series [3] (Homo sapiens), > 300 µM; in series [4] (Homo sapiens) it was > 300 µM; in series [5] (Homo sapiens, A-375, 48 hours), 32.1 µM; in series [6] (Homo sapiens), > 300 µM.
